Assay results reported in patent US20250197359A1, “CANNABINOID RECEPTOR MODULATING COMPOUNDS” (The U.S.A., as Represented by the Secretary, Department of …, priority 2022, published 2025).

Experiments:
Brain/CB1 = molecular target: T1, Brain/CB1 (Mus musculus, UniProt P47746); test: Functional GTPγS binding, Brain/CB1; assay type: biochemical
T1 construct: from tissue; host or cells: mouse brain membranes
Text: Furthermore, the intermediates urea compounds 8a-m were chlorinated with phosphorus oxychloride in the presence of DIPEA base to form imidoyl chloride intermediate and reacted with acetamidine hydrochloride/methyl carbamimidothioate iodide/methyl carbamimidoselenoate iodide and other amines to furnish the target compounds (10a-34b) (Scheme 2, FIG. 2, Scheme 5, FIG. 5). The urea derivatives were converted to the thiourea derivatives 9a-9d by employing sodium thiosulfate. Compound 8a-b, 8e-f were converted to corresponding thiourea by employing sodium thiosulfate dissolved in water dioxane mixture and the reaction was heated to 85° C. for 2 h. […] The binding constant for the synthesized compounds were determined by using radioligand binding assay in mouse brain membranes as well as the target compounds were evaluated in vitro at the human CB1 receptor, stably expressed into Chinese hamster ovary (CHO) cells as well as mouse brain membrane CB1.

CB1 = CB1 (UniProt P21554); test: CB1 radioligand binding assay; set-up: species or system human; conditions: read-out: Ki (CB1)
Description: The target compounds were evaluated in vitro at the human CB1 receptor, stably expressed into Chinese hamster ovary (CHO) cells by utilizing radioligand binding studies.
The binding constant for the synthesized compounds were determined by using radioligand binding assay in mouse brain membranes as well as the target compounds were evaluated in vitro at the human CB1 receptor, stably expressed into Chinese hamster ovary (CHO) cells as well as mouse brain membrane CB1. […]

T1 sequence (P47746 whole entry): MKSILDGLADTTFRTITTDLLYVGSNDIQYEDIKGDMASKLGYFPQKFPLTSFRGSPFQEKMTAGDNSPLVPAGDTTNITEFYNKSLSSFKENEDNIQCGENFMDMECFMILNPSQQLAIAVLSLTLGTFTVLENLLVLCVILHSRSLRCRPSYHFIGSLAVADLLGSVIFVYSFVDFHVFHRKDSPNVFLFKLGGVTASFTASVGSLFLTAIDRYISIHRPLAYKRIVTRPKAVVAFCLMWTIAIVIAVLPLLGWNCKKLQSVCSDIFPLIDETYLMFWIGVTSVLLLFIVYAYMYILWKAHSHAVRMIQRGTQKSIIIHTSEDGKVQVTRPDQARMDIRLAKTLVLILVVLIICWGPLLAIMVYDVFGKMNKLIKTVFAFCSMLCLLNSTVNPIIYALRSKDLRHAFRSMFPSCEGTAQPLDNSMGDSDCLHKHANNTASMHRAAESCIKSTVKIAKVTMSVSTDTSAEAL

Compound	IC50 (Brain/CB1)	Ki (CB1)
CC(C)(C)/C(N)=N/C(=N/S(=O)(=O)c1ccc(C(F)(F)F)cc1)N1CCC(c2ccccc2)C(c2ccc(Cl)cc2)=N1 (single isomer, unassigned) [Compound 10oE1, (Z)—N—((Z)-1-amino-2,2-dimethylpropylidene)-3-(4-chlorophenyl)-4-phenyl-N′-((4-(trifluoromethyl)phenyl)sulfonyl)-5,6-dihydropyridazine-1 (4H)-carboximidamide]	222 nM	351 nM
N/C(=N\C(=N\S(=O)(=O)c1ccc(C(F)(F)F)cc1)N1CCC(c2ccccc2)C(c2ccc(Cl)cc2)=N1)c1ccccc1F (single isomer, unassigned) [Compound 10tE1, (Z)—N—((Z)-amino (2-fluorophenyl)methylene)-3-(4-chlorophenyl)-4-phenyl-N′-((4-(trifluoromethyl)phenyl)sulfonyl)-5,6-dihydropyridazine-1 (4H)-carboximidamide]	51 nM	–
N/C(=N\C(=N\S(=O)(=O)c1ccc(C(F)(F)F)cc1)N1CCC(c2ccccc2)C(c2ccc(Cl)cc2)=N1)c1ccccn1 (single isomer, unassigned) [Compound 10vE1, (Z)—N—((Z)-amino (pyridin-2-yl)methylene)-3-(4-chlorophenyl)-4-phenyl-N′-((4-(trifluoromethyl)phenyl)sulfonyl)-5,6-dihydropyridazine-1 (4H)-carboximidamide]	107 nM	11.5 nM
CC(C)C(N/C(=N/S(=O)(=O)c1ccc(C(F)(F)F)cc1)N1CCC(c2ccccc2)C(c2ccc(Br)cc2)=N1)C(N)=O (single isomer, unassigned) [Compound 26a, (Z)-2-(3-(4-bromophenyl)-4-phenyl-N′-((4-(trifluoromethyl)phenyl)sulfonyl)-1,4,5,6-tetrahydropyridazine-1-carboximidamido)-3-methylbutanamide]	> 1000 nM	–
COc1ccc(S(=O)(=O)/N=C(/NC(C(N)=O)C(C)C)N2CCC(c3ccccc3)C(c3ccc(Cl)cc3)=N2)cc1 (single isomer, unassigned) [Compound 27a, (Z)-2-(3-(4-chlorophenyl)-N′-((4-methoxyphenyl)sulfonyl)-4-phenyl-1,4,5,6-tetrahydropyridazine-1-carboximidamido)-3-methylbutanamide]	> 1000 nM	–
COc1ccc(S(=O)(=O)/N=C(/NC(C(N)=O)C(C)C)N2CCC(c3ccccc3)C(c3ccc(Cl)cc3)=N2)cc1 (single isomer, unassigned) [Compound 27b, (Z)-2-(3-(4-chlorophenyl)-N′-((4-methoxyphenyl)sulfonyl)-4-phenyl-1,4,5,6-tetrahydropyridazine-1-carboximidamido)-3-methylbutanamide]	51 nM	–
CC(C)C(N/C(=N/S(=O)(=O)c1ccccc1)N1CCC(c2ccccc2)C(c2ccc(Cl)cc2)=N1)C(N)=O (single isomer, unassigned) [Compound 28a, (Z)-2-(3-(4-chlorophenyl)-4-phenyl-N′-(phenylsulfonyl)-1,4,5,6-tetrahydropyridazine-1-carboximidamido)-3-methylbutanamide]	> 1000 nM	–
CC(C)C(N/C(=N/S(=O)(=O)c1ccccc1)N1CCC(c2ccccc2)C(c2ccc(Cl)cc2)=N1)C(N)=O (single isomer, unassigned) [Compound 28b, (Z)-2-(3-(4-chlorophenyl)-4-phenyl-N′-(phenylsulfonyl)-1,4,5,6-tetrahydropyridazine-1-carboximidamido)-3-methylbutanamide]	336 nM	–
CC(C)C(N/C(=N/S(=O)(=O)c1ccc(Cl)cc1)N1CCC(c2ccccc2)C(c2ccc(Cl)cc2)=N1)C(N)=O (single isomer, unassigned) [Compound 30a, (Z)-2-(3-(4-chlorophenyl)-N′-((4-chlorophenyl)sulfonyl)-4-phenyl-1,4,5,6-tetrahydropyridazine-1-carboximidamido)-3-methylbutanamide]	> 1000 nM	907 nM
CC(N/C(=N/S(=O)(=O)c1ccc(C(F)(F)F)cc1)N1CCC(c2ccccc2)C(c2ccc(Cl)cc2)=N1)C(N)=O (single isomer, unassigned) [Compound 31a, (Z)-2-(3-(4-chlorophenyl)-4-phenyl-N′-((4-(trifluoromethyl)phenyl)sulfonyl)-1,4,5,6-tetrahydropyridazine-1-carboximidamido) propenamide]	863 nM	96.9 nM
CCC(N/C(=N/S(=O)(=O)c1ccc(C(F)(F)F)cc1)N1CCC(c2ccccc2)C(c2ccc(Cl)cc2)=N1)C(N)=O (single isomer, unassigned) [Compound 32b, (Z)-2-(3-(4-chlorophenyl)-4-phenyl-N′-((4-(trifluoromethyl)phenyl)sulfonyl)-1,4,5,6-tetrahydropyridazine-1-carboximidamido) butanamide]	174 nM	77.4 nM
NC(=O)C(Cc1ccccc1)N/C(=N/S(=O)(=O)c1ccc(C(F)(F)F)cc1)N1CCC(c2ccccc2)C(c2ccc(Cl)cc2)=N1 (single isomer, unassigned) [Compound 33a, (Z)-2-(3-(4-chlorophenyl)-4-phenyl-N′-((4-(trifluoromethyl)phenyl)sulfonyl)-1,4,5,6-tetrahydropyridazine-1-carboximidamido)-3-phenylpropanamide]	423 nM	66.8 nM

These reach a lower IC50 (Brain/CB1). Values come first.

IC50 (Brain/CB1)	Ki (CB1)	Compound
34 nM	–	C/C(N)=N\C(=N\S(=O)(=O)c1ccc(C(F)(F)F)cc1)N1CCC(c2ccccc2)C(c2ccc(Cl)cc2)=N1 (single isomer, unassigned) [Compound 10bE2, (Z)—N—((E)-1-aminoethylidene)-3-(4-chlorophenyl)-4-phenyl-N′-((4-(trifluoromethyl)phenyl)sulfonyl)-5,6-dihydropyridazine-1 (4H)-carboximidamide]
11 nM	7.3 nM	CC(C)(C)/C(N)=N/C(=N/S(=O)(=O)c1ccc(C(F)(F)F)cc1)N1CCC(c2ccccc2)C(c2ccc(Cl)cc2)=N1 (single isomer, unassigned) [Compound 10oE2, (Z)—N—((Z)-1-amino-2,2-dimethylpropylidene)-3-(4-chlorophenyl)-4-phenyl-N′-((4-(trifluoromethyl)phenyl)sulfonyl)-5,6-dihydropyridazine-1 (4H)-carboximidamide]
18 nM	–	N/C(=N\C(=N\S(=O)(=O)c1ccc(C(F)(F)F)cc1)N1CCC(c2ccccc2)C(c2ccc(Cl)cc2)=N1)c1ccccc1F (single isomer, unassigned) [Compound 10tE2, (Z)—N—((Z)-amino (2-fluorophenyl)methylene)-3-(4-chlorophenyl)-4-phenyl-N′-((4-(trifluoromethyl)phenyl)sulfonyl)-5,6-dihydropyridazine-1 (4H)-carboximidamide]
24 nM	5 nM	N/C(=N\C(=N\S(=O)(=O)c1ccc(C(F)(F)F)cc1)N1CCC(c2ccccc2)C(c2ccc(Cl)cc2)=N1)c1ccccn1 (single isomer, unassigned) [Compound 10vE2, (Z)—N—((Z)-amino (pyridin-2-yl)methylene)-3-(4-chlorophenyl)-4-phenyl-N′-((4-(trifluoromethyl)phenyl)sulfonyl)-5,6-dihydropyridazine-1 (4H)-carboximidamide]
9.5 nM	–	CC(C)C(N/C(=N/S(=O)(=O)c1ccc(C(F)(F)F)cc1)N1CCC(c2ccccc2)C(c2ccc(Br)cc2)=N1)C(N)=O (single isomer, unassigned) [Compound 26b, (Z)-2-(3-(4-bromophenyl)-4-phenyl-N′-((4-(trifluoromethyl)phenyl)sulfonyl)-1,4,5,6-tetrahydropyridazine-1-carboximidamido)-3-methylbutanamide]
39 nM	18.2 nM	CC(C)C(N/C(=N/S(=O)(=O)c1ccc(Cl)cc1)N1CCC(c2ccccc2)C(c2ccc(Cl)cc2)=N1)C(N)=O (single isomer, unassigned) [Compound 30b, (Z)-2-(3-(4-chlorophenyl)-N′-((4-chlorophenyl)sulfonyl)-4-phenyl-1,4,5,6-tetrahydropyridazine-1-carboximidamido)-3-methylbutanamide]
33 nM	8.05 nM	CC(N/C(=N/S(=O)(=O)c1ccc(C(F)(F)F)cc1)N1CCC(c2ccccc2)C(c2ccc(Cl)cc2)=N1)C(N)=O (single isomer, unassigned) [Compound 31b, (Z)-2-(3-(4-chlorophenyl)-4-phenyl-N′-((4-(trifluoromethyl)phenyl)sulfonyl)-1,4,5,6-tetrahydropyridazine-1-carboximidamido) propenamide]
12 nM	6.13 nM	NC(=O)C(Cc1ccccc1)N/C(=N/S(=O)(=O)c1ccc(C(F)(F)F)cc1)N1CCC(c2ccccc2)C(c2ccc(Cl)cc2)=N1 (single isomer, unassigned) [Compound 33b, (Z)-2-(3-(4-chlorophenyl)-4-phenyl-N′-((4-(trifluoromethyl)phenyl)sulfonyl)-1,4,5,6-tetrahydropyridazine-1-carboximidamido)-3-phenylpropanamide]
41 nM	46.4 nM	COC(=O)C(N/C(=N/S(=O)(=O)c1ccc(C(F)(F)F)cc1)N1CCC(c2ccccc2)C(c2ccc(Cl)cc2)=N1)C(C)C (single isomer, unassigned) [Compound 34a]
17 nM	2.71 nM	COC(=O)C(N/C(=N/S(=O)(=O)c1ccc(C(F)(F)F)cc1)N1CCC(c2ccccc2)C(c2ccc(Cl)cc2)=N1)C(C)C (single isomer, unassigned) [Compound 34b]
